Source: the NIST ThermoML archive (doi:10.1016/j.jct.2016.03.026)
Numbers after ± are expanded uncertainties.

Test: xn = mol fraction of the nth substance listed
Conditions: Fluid (supercritical or subcritical phases); for mass density: 263.15 K, Vibrating tube method; for speed of sound: Frequency=5 MHz, Pulse-echo method

O=C=O [carbon dioxide] + CO
x1 = 0.97
Conditions | mass density [kg/m3]
19700 kPa | 1052.08 ± 0.8
19725 kPa | 1052.13 ± 0.8
19750 kPa | 1052.26 ± 0.8
19775 kPa | 1052.28 ± 0.8
19800 kPa | 1052.34 ± 0.8
19825 kPa | 1052.45 ± 0.8
19850 kPa | 1052.5 ± 0.8
19875 kPa | 1052.59 ± 0.8
19900 kPa | 1052.67 ± 0.8
19925 kPa | 1052.75 ± 0.8
19950 kPa | 1052.83 ± 0.8
19975 kPa | 1052.91 ± 0.8
20000 kPa | 1052.99 ± 0.8

Conditions | speed of sound [m/s]
263.16 K, 3280 kPa, x1 = 0.97 | 626.2 ± 1
263.16 K, 3800 kPa, x1 = 0.97 | 633.5 ± 1
263.16 K, 5050 kPa, x1 = 0.97 | 649.7 ± 1
263.16 K, 6020 kPa, x1 = 0.97 | 661.8 ± 1
263.16 K, 6170 kPa, x1 = 0.97 | 664.3 ± 1
263.16 K, 8100 kPa, x1 = 0.97 | 687.5 ± 1
263.16 K, 10020 kPa, x1 = 0.97 | 706.8 ± 1
263.16 K, 14960 kPa, x1 = 0.97 | 752.4 ± 1.1
263.16 K, 19890 kPa, x1 = 0.97 | 792.8 ± 1.1
263.16 K, 24920 kPa, x1 = 0.97 | 829.4 ± 1.1
263.16 K, 29960 kPa, x1 = 0.97 | 862.5 ± 1.1
263.16 K, 34890 kPa, x1 = 0.97 | 892.6 ± 1.2
263.16 K, 39940 kPa, x1 = 0.97 | 921 ± 1.2
263.16 K, 44890 kPa, x1 = 0.97 | 947 ± 1.2
263.16 K, 49990 kPa, x1 = 0.97 | 972.3 ± 1.3
263.16 K, 54910 kPa, x1 = 0.97 | 995.6 ± 1.3
263.16 K, 60010 kPa, x1 = 0.97 | 1018.3 ± 1.3
263.16 K, 65090 kPa, x1 = 0.97 | 1039.8 ± 1.3
263.16 K, 69970 kPa, x1 = 0.97 | 1059.9 ± 1.4
263.16 K, 75000 kPa, x1 = 0.97 | 1079.5 ± 1.4
263.16 K, 80150 kPa, x1 = 0.97 | 1098.9 ± 1.4
263.16 K, 90130 kPa, x1 = 0.97 | 1134.4 ± 1.5
263.16 K, 100140 kPa, x1 = 0.97 | 1168 ± 1.5
263.16 K, 110060 kPa, x1 = 0.97 | 1199.3 ± 1.5
263.16 K, 119960 kPa, x1 = 0.97 | 1228.9 ± 1.6
263.16 K, 140000 kPa, x1 = 0.97 | 1284.7 ± 1.6
263.16 K, 159900 kPa, x1 = 0.97 | 1335.8 ± 1.7
263.16 K, 179990 kPa, x1 = 0.97 | 1383.3 ± 1.8
263.16 K, 194490 kPa, x1 = 0.97 | 1415.5 ± 1.8
263.18 K, 6060 kPa, x1 = 0.7534 | 735.8 ± 1.1
263.18 K, 9710 kPa, x1 = 0.7534 | 770.9 ± 1.1
263.18 K, 14730 kPa, x1 = 0.7534 | 813.5 ± 1.1
263.18 K, 14950 kPa, x1 = 0.9803 | 747.6 ± 1
263.18 K, 20160 kPa, x1 = 0.7534 | 854.1 ± 1.2
263.18 K, 24940 kPa, x1 = 0.7534 | 886.4 ± 1.2
263.18 K, 30090 kPa, x1 = 0.7534 | 918.5 ± 1.2
263.18 K, 34860 kPa, x1 = 0.9803 | 887.4 ± 1.2
263.18 K, 35000 kPa, x1 = 0.7534 | 946.9 ± 1.2
263.18 K, 39910 kPa, x1 = 0.9803 | 916.3 ± 1.2
263.18 K, 40020 kPa, x1 = 0.7534 | 974 ± 1.3
263.18 K, 44820 kPa, x1 = 0.7534 | 998.5 ± 1.3
263.18 K, 44980 kPa, x1 = 0.9803 | 943.5 ± 1.2
263.18 K, 49950 kPa, x1 = 0.7534 | 1023.2 ± 1.3
263.18 K, 50170 kPa, x1 = 0.9803 | 969 ± 1.3
263.18 K, 55000 kPa, x1 = 0.9803 | 992.2 ± 1.3
263.18 K, 55090 kPa, x1 = 0.7534 | 1046.8 ± 1.4
263.18 K, 59880 kPa, x1 = 0.7534 | 1067.8 ± 1.4
263.18 K, 60140 kPa, x1 = 0.9803 | 1015.5 ± 1.3
